# According to patent US6071884A, “Pharmaceutical compositions and therapeutic methods” (Kirin Beer Kabushiki Kaisha, priority 1992, dated 2000):
# Key:
# [1] = system: mononuclear cell fraction of human umbilical cord blood; assay: Proliferation-stimulating effect on mononuclear cell fraction of human umbilical cord blood (3H-TdR uptake); assay type: cell-based; settings: 96 h, percentage of control, 4 days; for activity at 0.1 µg/mL: 10^-1 μg/ml; for activity at 0.01 µg/mL: 10^-2 μg/ml; for activity at 0.001 µg/mL: 10^-3 μg/ml
# Text: Pharmacological Test 3: Proliferation-Stimulating Effect on Mononuclear Cell Fraction of Human Umbilical Cord Blood
# It is extremely difficult to obtain human marrow cells. In addition, human umbilical cord blood contains stem cells (Nakahata, T. & Ogwa, M., J. Clin. Inveet. 70, 1324-1328 (1982)), so that it can be a good source of hematopoietic stem/progenitor cell supply (H. E. Broxneyer et al, Proc. Natl. Acad. Sci. USA, 86, 3828-3832 (1989)). For these reasons, the effect on human was examined by using, instead of human marrow cells, human umbilical cord blood.
# To human umbilical cord blood was added an equal amount of RPMI 1640. This was placed on a Lymphoprep and centrifugal. The mononuclear cell fraction (MNF) thus obtained was used in the following experiment.
# (§1) The concentration of the MNF was adjusted to 1×10^6 cells/ml by using an RPMI 1640 added with 10% auto-blood plasma as a culture medium. 10 μl/well of a sample with a predetermined concentration and 100 μl/well of the above-prepared MNF were placed on a round-bottomed 96 well plate and incubated under the conditions of 37° C. and 5% CO2 for 4 days. Thereafter, 0.5 μCi/well of ^3 H-TdR was added. After 8 hour incubation, the cells were harvested, and the amount of the 3H-TdR taken in the nuclei was measured by a liquid scintillation counter.
# [2] = system: marrow cells (mononuclear cell fraction); assay: Proliferation-stimulating effect on marrow cell of mouse (3H-TdR uptake); assay type: cell-based, mouse (BALB/c); settings: percentage of control, 72 h; for activity at 0.1 µg/mL: 10^-1 μg/ml; for activity at 0.01 µg/mL: 10^-2 μg/ml; for activity at 0.001 µg/mL: 10^-3 μg/ml; for activity at 1 µg/mL: 10^0 μg/ml
# Method: Pharmacological Test 1: Proliferation-Stimulating Effect on Marrow Cell of Mouse
# Marrow cells were prepared from the thigh bone of a 7 week old female BALB/c mouse purchased from Japan SLC Co., Ltd., and a mononuclear cell fraction (MNF) obtained by fractionation using a lympholyte-M (Cedar Lane, Ontario, Canada) was used in the following experiment.
# as §1, with “to 1.5×10^6” for “to 1×10^6”, “using 10% FCS” for “using an”, “1640 (Nissui Pharmaceutical Co., Ltd., Tokyo, Japan)” for “1640 added with 10% auto-blood plasma”, “well plate,” for “well plate”, “for 72 hours.” for “for 4 days.”, “^3 H-thymidine (^3 H-TDR)” for “^3 H-TdR”
# [3] = system: blood platelets; assay: Thrombocytopenia-inhibiting effect in X-ray-irradiated mice; assay type: in vivo, mouse (BDF1); settings: 10 days after 5 Gy X-ray; 0.1 mg/kg i.v. within 2 h; mean ± SD; vehicle per series 10.3, 6.8, 6.7; non-treatment 68.2, 96.9, 73.0
# Method: Pharmacological Test 5: Thromboclytopenia-Inhibiting Effect
# The thrombocytopenia-inhibiting effect of each sample upon an X-ray-irradiated mouser which is one of models with a decreased number of blood platelets was examined.
# An experiment was carried out by using 6 week old female BDF1 mice purchased from Japan SLC Co., Ltd., with 6 mice made one group.
# 5 Gy of X ray was irradiated to the entire body of the mice by a Hitachi X-ray irradiator CMBR-1520R). Within 2 hours after the irradiation, each sample was administered to the caudal vein of the mice at an amount of 0.1 mg/kg.
# (§2) After 10 days, blood was collected from the fundus vein of the mice, and the number of blood platelets was measured by a sequential multi-channel hemocytometer E-2500/cs (Toa Iyo Denshi Kabushiki Kaisha). The number of blood platelets of the non-treated group, that of the medium-administered group, and that of the sample-administered group are shown in Table 5.
# [4] = Life-span-increasing effect on irradiation of a lethal dose of radiation; assay type: in vivo, mouse (BDF1); settings: 10 mice/group, 9 Gy X-ray, 0.1 mg/kg i.v. days 0, 4, 8
# Method: Pharmacological Test 4: Life-Span-Increasing Effect on Irradiation of a Lethal Dose of Radiation
# An experiment was carried out by using 6 week old female BDF1 mice purchased from Japan SLC Co., Ltd., with 10 mice made one group.
# The entire bodies of the entire body of the mice were irradiated with 9 Gy of X-rays by using a Hitachi X-ray irradiator (MBR-1520R), and the day on which the X-ray was irradiated was referred to as "day 0".
# [5] = system: blood platelets; assay: Blood-platelet-increasing effect upon normal mouse; assay type: in vivo, mouse (BDF1); settings: normal mice; 6 days after 0.1 mg/kg i.v.; mean ± SD; vehicle per series 58.2, 63.0, 71.1
# Method: Pharmacological Test 6: Blood-Platelet-Increasing Effect upon Mouse
# An experiment was carried out by using 6 week old female BDF1 mice purchased from Japan SLC Co., Ltd., with 5 mice made one group.
# as §2, with “Each sample was administered to the caudal vein of the mice at a dose of 0.1 mg/kg. After” for “After”, “6” for “10”, “vehicle-administered” for “non-treated group, that of the medium-administered”, “6.” for “5.”
# [6] = day 10, controls per series 10, 10, 10, 10, 10, 8
# [7] = day 15, controls per series 8, 9, 5, 5, 7, 1
# [8] = day 20, controls per series 4, 5, 1, 2, 3, 0
# [9] = day 25, controls per series 3, 3, 0, 0, 2, 0
# [10] = day 30, controls per series 1, 1, 0, 0, 0, 0
Structure (SMILES),activity at 0.1 µg/mL [1],activity at 0.01 µg/mL [1],activity at 0.001 µg/mL [1],activity at 0.1 µg/mL [2],activity at 0.01 µg/mL [2],activity at 0.001 µg/mL [2],Number of Blood Platelets [3],"Number of Surviving Mice [4, 6]","Number of Surviving Mice [4, 7]","Number of Surviving Mice [4, 8]","Number of Surviving Mice [4, 9]","Number of Surviving Mice [4, 10]","Number of Surviving Mice ([4]; day 35, all controls 0)","Number of Surviving Mice ([4]; day 40, all controls 0)",Number of Blood Platelets [5],activity at 1 µg/mL [2]
"CCCCCCCCCCCCCCCCCCCCCCCC(=O)N[C@@H](CO[C@H]1O[C@H](CO)[C@H](O)[C@H](O)[C@H]1O)[C@H](O)[C@H](O)CCCCCCCCCCCCCC [Compound 16, (2S,3S,4R)-1-(α-D-galactopyranosyloxy)-2-tetracosanoylamino-3,4-octadecanediol]",311%,204%,216%,495%,152%,115%,21.1 ± 6.2 × 10^4 /μl,10 mice,6 mice,6 mice,6 mice,6 mice,6 mice,6 mice,114.7 ± 13.0 × 10^4 /μl,
"CCCCCCCCCCCCCCCCCCCCCC[C@H](O)C(=O)N[C@@H](CO[C@H]1O[C@H](CO)[C@H](O)[C@H](O)[C@H]1O)[C@H](O)[C@H](O)CCCCCCCCCCCCC [Compound 28, (2S,3S,4R)-1-(α-D-galactopyranosyloxy)-2-[(S)-2-hydroxytetracosanoylaminol]-3,4-heptadecanediol]",356%,331%,182%,192%,170%,130%,20.4 ± 4.5 × 10^4 /μl,10 mice,10 mice,10 mice,8 mice,8 mice,8 mice,8 mice,103.6 ± 8.8 × 10^4 /μl,
"CCCCCCCCCCCCCCCCCCCCCCCCCCCC(=O)N[C@@H](CO[C@H]1O[C@H](CO)[C@H](O)[C@H](O)[C@H]1O)[C@H](O)[C@H](O)CCCCCCCCCCCCC [Compound 34, (2S,3S,4R)-1-(α-D-galactopyranosyloxy)-2-octacosanoylamino-3,4-heptadecanediol]",467%,258%,291%,272%,183%,150%,24.4 ± 5.6 × 10^4 /μl,10 mice,10 mice,10 mice,9 mice,9 mice,9 mice,9 mice,110.1 ± 9.0 × 10^4 /μl,
"CCCCCCCCCCCCCCCCCCCCCC[C@@H](O)C(=O)N[C@@H](CO[C@H]1O[C@H](CO)[C@H](O)[C@H](O)[C@H]1O)[C@H](O)CCCCCCCCCCCCCCC [Compound 14, (2S,3R)-1-(α-D-galactopyranosyloxy)-2-[(R)-2-hydroxytetracosanoylamino]-3-octadecanol]",233%,141%,96%,511%,132%,134%,22.3 ± 6.6 × 10^4 /μl,10 mice,10 mice,10 mice,9 mice,9 mice,9 mice,9 mice,101.6 ± 8.3 × 10^4 /μl,
"CCCCCCCCCCCCCCCCCCCCCC[C@H](O)C(=O)N[C@@H](CO[C@H]1O[C@H](CO)[C@H](O)[C@H](O)[C@H]1O)[C@H](O)[C@H](O)CCCCCCCCCCCC(C)C [Compound 30, (2S,3S,4R)-1-(α-D-galactopyranosyloxy)-2-[(S)-2-hydroxytetracosanoylamino]-16-methyl-3,4-heptadecanediol]",,,,293%,105%,92%,22.5 ± 3.5 × 10^4 /μl,10 mice,10 mice,10 mice,10 mice,10 mice,10 mice,10 mice,106.2 ± 9.0 × 10^4 /μl,712%
"CCCCCCCCCCCCCCC[C@@H](O)[C@H](CO[C@H]1O[C@H](CO)[C@H](O)[C@H](O)[C@H]1O)NC(=O)CCCCCCC [Compound 7, (2S,3R)-1-(α-D-galactopyranosyloxy)-2-octanoylamino-3-octadecanol]",,,,631%,351%,313%,12.3 ± 4.0 × 10^4 /μl,10 mice,8 mice,6 mice,5 mice,5 mice,5 mice,5 mice,76.0 ± 5.1 × 10^4 /μl,972%
"CCCCCCCCCCCCCCCCCCCCCCCC(=O)N[C@@H](CO[C@H]1O[C@H](CO)[C@H](O)[C@H](O)[C@H]1O)[C@H](O)CCCCCCCCCCC [Compound 9, (2S,3R)-1-(α-D-galactopyranosyloxy)-2-tetracosanoylamino-3-tetradecanol]",,,,547%,103%,134%,17.6 ± 3.4 × 10^4 /μl,10 mice,8 mice,6 mice,6 mice,6 mice,6 mice,6 mice,100.5 ± 8.3 × 10^4 /μl,
